The values that follow come from patent US8476253B2, “Amide derivative” (Daiichi Sankyo Company, Limited, priority 2009, dated 2013).

One experiment has as its target T1, substance P receptor (Cavia porcellus, UniProt P30547).
T1 construct: A preparation of a crude lung membrane sample was prepared; from tissue; host or cells: guinea-pig lung (crude membrane sample)
Nature of the experiment: Test for binding to guinea-pig substance P receptor (crude lung membrane sample). The note with it: crude guinea-pig lung membrane sample, [3H]substance P; Ki from IC50 and Kd; read-out: Ki. The method, then: A preparation of a crude lung membrane sample was prepared, and a test for binding of a test substance to the sample was performed according to the method described in EP0336230A2.
The binding effect of the test substance to a substance P receptor was calculated as an affinity (Ki) of the test substance for the substance P receptor from a 50% binding concentration (IC50) and an affinity (Kd) of [^3H]substance P for the substance P receptor.

In another experiment the target is T2, human NK2 receptor (Homo sapiens, UniProt P21452).
T2 construct: expressed in transfected cells; host or cells: COS cells
T2 sequence (P21452 1-398): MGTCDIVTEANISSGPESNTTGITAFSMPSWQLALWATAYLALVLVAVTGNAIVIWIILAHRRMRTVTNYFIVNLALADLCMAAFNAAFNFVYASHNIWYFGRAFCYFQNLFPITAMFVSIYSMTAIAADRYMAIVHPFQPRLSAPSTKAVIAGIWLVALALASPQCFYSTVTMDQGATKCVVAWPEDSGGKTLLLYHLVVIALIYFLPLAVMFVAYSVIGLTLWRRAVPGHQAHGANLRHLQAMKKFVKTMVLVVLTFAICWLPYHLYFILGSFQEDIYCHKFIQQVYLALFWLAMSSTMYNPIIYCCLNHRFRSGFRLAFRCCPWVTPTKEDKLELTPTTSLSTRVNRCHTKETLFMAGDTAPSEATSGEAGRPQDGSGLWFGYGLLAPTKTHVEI
Nature of the experiment: Test for binding to human NK2 receptor. The gist of the method:
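Radioligand binding with [^3H]SR 48968 on cryopreserved COS cells expressing human NK2 receptor (5.0×10^5 cells/mL), in 50 mM Tris-HCl pH 7.4 with BSA, MnCl2 and protease inhibitors. Bound label collected on PEI-treated GF/B filters, counted by liquid scintillation; Ki derived from IC50 and radioligand Kd.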

The target in another experiment is T3, human M3 receptor (Homo sapiens, UniProt P20309).
T3 construct: expressed in transfected cells; host or cells: CHO cells
The experiment is described as follows: Test for binding to human M3 receptor. The gist of the method: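 CHO-cell crude membranes expressing human M3 were incubated with [N-methyl-3H]-(−)-scopolamine methyl chloride in 50 mM Tris-HCl, 0.5 mM EDTA, pH 7.4, for 60 min at room temperature. Bound ligand was collected on PEI-pretreated glass-fibre filters and counted by liquid scintillation. Ki was calculated from IC50 and the radioligand Kd.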

The subject of a further experiment is muscarine M3 receptor. The experiment is described as follows: Effect of suppressing methacholine-induced airway contraction (in vivo, intratracheal administration). Set-up: species or system guinea pig. The note with it: guinea pigs, intratracheal administration 60 minutes before 30 μg/kg i.v. methacholine, AUC of increase in airway pressure over 10 minutes. The gist of the method:
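Anesthetized, gallamine-paralysed, ventilated male Hartley guinea pigs (350–550 g); compound in 5% glucose given intratracheally 60 min before 30 μg/kg i.v. methacholine. Airway pressure AUC over 10 min scored; ID50 from inhibition versus 5% glucose vehicle group.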

The mark [1] stands for this setting: COS cells expressing human NK2 receptor, [3H]SR 48968 1 nM, Ki from IC50 and Kd, read-out: Ki.
The mark [2] stands for this setting: CHO cells expressing human M3 receptor, [N-methyl-3H]-(-)-Scopolamine methyl chloride 0.5 nM, Ki from IC50 and Kd, read-out: Ki.

A word on the Ki: it is a dissociation constant, usually derived from enzyme kinetics or from competition with a known ligand.

Where a name gives a salt, the structure may show the parent alone. Read-outs that look alike come from different tables or passages of the source.

T3 sequence (P20309 whole entry): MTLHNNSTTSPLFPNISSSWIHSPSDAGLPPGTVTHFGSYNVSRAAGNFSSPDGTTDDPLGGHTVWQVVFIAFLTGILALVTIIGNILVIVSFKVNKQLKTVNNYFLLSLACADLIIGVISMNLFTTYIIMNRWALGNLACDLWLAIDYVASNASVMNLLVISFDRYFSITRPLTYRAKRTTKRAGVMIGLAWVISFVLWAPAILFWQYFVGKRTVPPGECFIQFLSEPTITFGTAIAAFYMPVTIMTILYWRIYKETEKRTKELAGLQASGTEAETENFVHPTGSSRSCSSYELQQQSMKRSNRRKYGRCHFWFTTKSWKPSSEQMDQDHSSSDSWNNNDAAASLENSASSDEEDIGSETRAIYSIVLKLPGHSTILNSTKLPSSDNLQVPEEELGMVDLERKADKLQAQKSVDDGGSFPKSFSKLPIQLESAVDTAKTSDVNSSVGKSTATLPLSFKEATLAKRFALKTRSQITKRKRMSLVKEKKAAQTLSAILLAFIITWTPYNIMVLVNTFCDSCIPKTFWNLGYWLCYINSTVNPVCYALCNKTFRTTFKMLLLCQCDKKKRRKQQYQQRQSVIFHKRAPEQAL
T1 sequence (P30547 whole entry): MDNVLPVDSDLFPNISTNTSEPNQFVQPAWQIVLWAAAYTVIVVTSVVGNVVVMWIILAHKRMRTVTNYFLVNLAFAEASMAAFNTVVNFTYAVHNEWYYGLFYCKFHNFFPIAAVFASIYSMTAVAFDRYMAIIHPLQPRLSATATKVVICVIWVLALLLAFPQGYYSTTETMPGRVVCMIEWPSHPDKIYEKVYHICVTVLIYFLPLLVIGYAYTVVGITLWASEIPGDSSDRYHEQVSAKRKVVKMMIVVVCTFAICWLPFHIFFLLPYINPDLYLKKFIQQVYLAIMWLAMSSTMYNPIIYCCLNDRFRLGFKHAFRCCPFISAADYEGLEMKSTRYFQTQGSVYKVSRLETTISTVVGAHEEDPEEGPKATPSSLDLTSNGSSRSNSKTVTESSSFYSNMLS

As for `Cc1cc(NCCCCCC(=O)N(C)CCN2CCC(OC(=O)Nc3ccccc3-c3ccccc3)CC2)ccc1C(=O)N(C)CCCN(C)C(=O)CO[C@H]1Cc2ccccc2C12CCN(CC[C@@]1(c3ccc(F)cc3)CN(C(=O)c3cc(C(F)(F)F)cc(C(F)(F)F)c3)CO1)CC2` [Example 18, 1-(2-{[6-({4-[{3-[({[(2S)-1′-{2-[(5R)-3-[3,5-Bis(trifluoromethyl)benzoyl]-5-(4-fluorophenyl)-1,3-oxazolidin-5-yl]ethyl}-2,3-dihydrospiro[indene-1,4′-piperidin]-2-yl]oxy}acetyl)(methyl)amino]propyl}(methyl)carbamoyl]-3-methylphenyl}amino)hexanoyl](methyl)amino}ethyl)piperidin-4-yl biphenyl-2-ylcarbamate trihydrochloride], the inhibition constant Ki on substance P receptor came to 1.8 nM; at human NK2 receptor, 0.42 nM; on human M3 receptor it was 1.2 nM. This compound displayed an ID50 in the experiment with muscarine M3 receptor of 0.0389 mg/kg.
As to `CN(CCN1CCC(OC(=O)Nc2ccccc2-c2ccccc2)CC1)C(=O)CCCCCNc1ccc(C(=O)N(CCCN(C)C(=O)CO[C@H]2Cc3ccccc3C23CCN(CC[C@@]2(c4ccc(F)cc4)CN(C(=O)c4cc(C(F)(F)F)cc(C(F)(F)F)c4)CO2)CC3)C2CC2)cc1` [Example 25, 1-(2-{[6-({4-[{3-[({[(2S)-1′-{2-[(5R)-3-[3,5-Bis(trifluoromethyl)benzoyl]-5-(4-fluorophenyl)-1,3-oxazolidin-5-yl]ethyl}-2,3-dihydrospiro[indene-1,4′-piperidin]-2-yl]oxy}acetyl)(methyl)amino]propyl}(cyclopropyl)carbamoyl]phenyl}amino)hexanoyl](methyl)amino}ethyl)piperidin-4-yl biphenyl-2-ylcarbamate trihydrochloride], the Ki on substance P receptor worked out at 1.7 nM; at human NK2 receptor it was 0.77 nM; at human M3 receptor, 1.4 nM. In the experiment on muscarine M3 receptor, this compound came in with an ID50 of 0.0459 mg/kg.
Taken in the same sequence, the figures for `CN(CCN1CCC(OC(=O)Nc2ccccc2-c2ccccc2)CC1)C(=O)COCCCNc1ccc(C(=O)N(C)CCCN(C)C(=O)CO[C@H]2Cc3ccccc3C23CCN(CC[C@@]2(c4ccc(F)cc4)CN(C(=O)c4cc(C(F)(F)F)cc(C(F)(F)F)c4)CO2)CC3)cc1` [Example 27, 1-{2-[{[3-({4-[{3-[({[(2S)-1′-{2-[(5R)-3-[3,5-Bis(trifluoromethyl)benzoyl]-5-(4-fluorophenyl)-1,3-oxazolidin-5-yl]ethyl}-2,3-dihydrospiro[indene-1,4′-piperidin]-2-yl]oxy}acetyl)(methyl)amino]propyl}(methyl)carbamoyl]phenyl}amino)propoxy]acetyl}(methyl)amino]ethyl}piperidin-4-yl biphenyl-2-ylcarbamate trihydrochloride] were 1.2 nM, 0.76 nM, 1.4 nM and 0.0218 mg/kg.
Regarding `CN(CCN1CCC(OC(=O)Nc2ccccc2-c2ccccc2)CC1)C(=O)CCCCCNc1ccc(C(=O)N(C)CCN(C)C(=O)CO[C@H]2Cc3ccccc3C23CCN(CC[C@@]2(c4ccc(F)cc4)CN(C(=O)c4cc(C(F)(F)F)cc(C(F)(F)F)c4)CO2)CC3)cc1` [Example 16, 1-(2-{[6-({4-[{2-[({[(2S)-1′-{2-[(5R)-3-[3,5-Bis(trifluoromethyl)benzoyl]-5-(4-fluorophenyl)-1,3-oxazolidin-5-yl]ethyl}-2,3-dihydrospiro[indene-1,4′-piperidin]-2-yl]oxy}acetyl)(methyl)amino]ethyl}(methyl)carbamoyl]phenyl}amino)hexanoyl](methyl)amino}ethyl)piperidin-4-yl biphenyl-2-ylcarbamate trihydrochloride], the results for the Ki on substance P receptor, on human NK2 receptor and on human M3 receptor were 2.5 nM, 0.49 nM and 2.4 nM, respectively. The compound further came in with an ID50 in the experiment on muscarine M3 receptor (trihydrochloride) of 0.0191 mg/kg.
In the case of `CN(CCN1CCC(OC(=O)Nc2ccccc2-c2ccccc2)CC1)C(=O)CCOCCNc1ccc(C(=O)N(C)CCCN(C)C(=O)CO[C@H]2Cc3ccccc3C23CCN(CC[C@@]2(c4ccc(F)cc4)CN(C(=O)c4cc(C(F)(F)F)cc(C(F)(F)F)c4)CO2)CC3)cc1` [Example 29, 1-{2-[{3-[2-({4-[{3-[({[(2S)-1′-{2-[(5R)-3-[3,5-Bis(trifluoromethyl)benzoyl]-5-(4-fluorophenyl)-1,3-oxazolidin-5-yl]ethyl}-2,3-dihydrospiro[indene-1,4′-piperidin]-2-yl]oxy}acetyl)(methy)amino]propyl}(methyl)carbamoyl]phenyl}amino)ethoxy]propanoyl}(methyl)amino]ethyl}piperidin-4-yl biphenyl-2-ylcarbamate trihydrochloride], the Ki is 1.4 nM on substance P receptor, 0.76 nM on human NK2 receptor (setting [1]) and 1.7 nM at human M3 receptor (setting [2]). For the same compound, the ID50 in the experiment with muscarine M3 receptor was determined as 0.0266 mg/kg.
On to `CN(CCN1CCC(OC(=O)Nc2ccccc2-c2ccccc2)CC1)C(=O)CCCCCNCc1ccc(C(=O)N(C)CCCN(C)C(=O)CO[C@H]2Cc3ccccc3C23CCN(CC[C@@]2(c4ccc(F)cc4)CN(C(=O)c4cc(C(F)(F)F)cc(C(F)(F)F)c4)CO2)CC3)s1` [Example 1, 1-{2-[{6-[({5-[{3-[({[(2S)-1′-{2-[(5R)-3-[3,5-Bis(trifluoromethyl)benzoyl]-5-(4-fluorophenyl)-1,3-oxazolidin-5-yl]ethyl}-2,3-dihydrospiro[indene-1,4′-piperidin]-2-yl]oxy}acetyl)(methyl)amino]propyl}(methyl)carbamoyl]-2-thienyl}methyl)amino]hexanoyl}(methyl)amino]ethyl}piperidin-4-yl biphenyl-2-ylcarbamate], for which the inhibition constant (Ki) came to 1.5 nM at substance P receptor, 0.57 nM on human NK2 receptor (setting [1]) and 1.4 nM at human M3 receptor (setting [2]). The same compound returned an ID50 with muscarine M3 receptor of 0.0177 mg/kg.
Take `CN(CCN1CCC(OC(=O)Nc2ccccc2-c2ccccc2)CC1)C(=O)CCCCCNc1ccc(C(=O)N2CCCN(C(=O)CO[C@H]3Cc4ccccc4C34CCN(CC[C@@]3(c5ccc(F)cc5)CN(C(=O)c5cc(C(F)(F)F)cc(C(F)(F)F)c5)CO3)CC4)CC2)cc1` [Example 110, 1-{2-[{6-[(4-{[4-({[(2S)-1′-{2-[(5R)-3-[3,5-Bis(trifluoromethyl)benzoyl]-5-(4-fluorophenyl)-1,3-oxazolidin-5-yl)ethyl}-2,3-dihydrospiro[indene-1,4′-piperidin]-2-yl]oxy}acetyl)-1,4-diazepan-1-yl]carbonyl}phenyl)amino]hexanoyl}(methyl)amino]ethyl}piperidin-4-yl biphenyl-2-ylcarbamate trihydrochloride]: the figures for the Ki at substance P receptor, on human NK2 receptor and on human M3 receptor were 1.7 nM, 0.6 nM and 0.93 nM, respectively. The compound also gave an ID50 with muscarine M3 receptor of 0.0318 mg/kg.
Turning to `CN(CCN1CCC(OC(=O)Nc2ccccc2-c2ccccc2)CC1)C(=O)CCCNc1ccc(C(=O)N(C)CCCN(C)C(=O)CO[C@H]2Cc3ccccc3C23CCN(CC[C@@]2(c4ccc(F)cc4)CN(C(=O)c4cc(C(F)(F)F)cc(C(F)(F)F)c4)CO2)CC3)cc1` [Example 34, 1-(2-{[4-({4-[{3-[({[(2S)-1′-{2-[(5R)-3-[3,5-Bis(trifluoromethyl)benzoyl]-5-(4-fluorophenyl)-1,3-oxazolidin-5-yl]ethyl}-2,3-dihydrospiro[indene-1,4′-piperidin]-2-yl]oxy}acetyl)(methyl)amino]propyl}(methyl)carbamoyl]phenyl}amino)butanoyl](methyl)amino}ethyl)piperidin-4-yl biphenyl-2-ylcarbamate trihydrochloride], the Ki at substance P receptor was determined as 1 nM; on human NK2 receptor it was 0.54 nM; on human M3 receptor, 1.5 nM. The compound further gave an ID50 with muscarine M3 receptor of 0.0251 mg/kg.
